We go through 17 compounds from ChEMBL document CHEMBL5620342, “Recent advances of novel fourth generation EGFR inhibitors in overcoming C797S mutation of lung cancer therapy” (Eur J Med Chem, 2023).

Series [1] deals with BaF3. The series can be described thus: Inhibition of cell proliferation of mouse BaF3 cells expressing EGFR Del19/T790M/C797S mutant (unknown origin). Type of series: functional, cell-based.
For series [2], the system named is BaF3. In words: Cytotoxicity against mouse BaF3 cells harboring EGFR L858R/T790M/C797S mutant assessed as reduction in cell viability incubated for 96 hrs by CellTiter-Glo assay. The following applies: BaF3, 96 h. Type of series: functional, cell-based.
The target of series [3] is T1, Epidermal growth factor receptor (Homo sapiens, UniProt P00533, C797S/L858R/T790M). In words: (§1) Inhibition of […]/T790M/C797S triple mutant (unknown origin) phosphorylation expressed in mouse BaF3 cells by HTRF assay. It is filed as cell-based.
For series [4], the target named is T1, Epidermal growth factor receptor. In words: Inhibition of EGFR L858R/T790M/C797S triple mutant (unknown origin) expressed in Bac-to-Bac baculovirus expression system measured after 2 hrs by ELISA method.
Series [5] has as its system A-431. The series can be described thus: Cytotoxicity against human A-431 cells expressing wild type EGFR assessed as reduction in cell viability incubated for 96 hrs by CellTiter-Glo assay. The following applies: A-431, 96 h. Type of series: functional, cell-based.
For series [6], the system named is A-431. The series can be described thus: Antiproliferative activity against human A-431 cells […] assessed as reduction in cell growth. It is filed as functional, cell-based.
Series [7] relates to NIH3T3. The series can be described thus: Antiproliferative activity against mouse NIH3T3 cells expressing EGFR Del19/T790M/C797S mutant assessed as reduction in cell proliferation incubated for 72 hrs by MTT assay. It is filed as functional, cell-based. To be noted: NIH3T3, 72 h.
The test system of series [8] is BaF3. The series can be described thus: Cytotoxicity against mouse BaF3 cells expressing EGFR L858R mutant assessed as reduction in cell viability. It is filed as functional, cell-based.
Series [9] can be described thus: cells. To be noted: Mus musculus, Ba/F3 EGFR-T790M/C797S/L858R.
Series [10] can be described thus: Oral bioavailability in CD-1 mouse at 3 mg/kg measured after 24 hrs by LC-MS/MS analysis. The following applies: in vivo. It is filed as ADME, organism-based.
Series [11] is described as follows: Inhibition of EGFR T790M/C797S double mutant (unknown origin). More on the design: species or system Homo sapiens.
Series [12] concerns the target T1, Epidermal growth factor receptor. The series can be described thus: Inhibition of EGFR L858R/T790M/C797S mutant (unknown origin) using TK-substrate preincubated with enzyme for 30 mins followed by substrate for 10 mins by HTRF assay.
Series [13] addresses Epidermal growth factor receptor (Homo sapiens, UniProt P00533). In words: Inhibition of wild type EGFR (unknown origin) by ELISA analysis.
Series [14] concerns BaF3. The series can be described thus: Cytotoxicity against mouse BaF3 cells harboring wild type EGFR assessed as reduction in cell viability incubated for 72 hrs by CellTiter-Glo assay. It is filed as functional, cell-based. To be noted: BaF3, 72 h.
Series [15] has as its system PC-9. In words: Antiproliferative activity against human PC-9 cells assessed as inhibition of cell growth incubated for 72 hrs by MTT assay. It is filed as functional, cell-based. To be noted: PC-9, 72 h.
In series [16] the test system is PC-9. In words: Antiproliferative activity against human PC-9 cells expressing EGFR Del19 mutant assessed as inhibition of cell growth measured after 72 hrs by MTT assay. It is filed as functional, cell-based. To be noted: PC-9, 72 h.
Series [17] deals with BaF3. The series can be described thus: Antiproliferative activity against mouse BaF3 cells harboring EGFR L858R/T790M/C797S triple mutant after 72 hrs by resazurin dye-based fluorescence assay. The following applies: BaF3, 72 h. Type of series: functional, cell-based.
In series [18] the test system is BaF3. The series can be described thus: Cytotoxicity against mouse BaF3 cells harboring EGFR-Del19/T790M/C797S mutant assessed as cell growth inhibition measured after 72 hrs by CellTiter-Glo luminescent assay. Type of series: functional, cell-based. To be noted: BaF3, 72 h.
Series [19] concerns PC-9. The series can be described thus: Antitumor activity in OR-resistant human PC-9 cells xenografted in […] assessed as tumor growth inhibition at 30 mg/kg, po administered once daily for 14 days relative to control. It is filed as functional. To be noted: PC-9, 336 h, time 14 day, read-out: TGI.
Series [20] is described as follows: Inhibition of EGFR-C797S/T790M/del19 mutant in mouse BaF3 cells assessed as reduction in EGFR phosphorylation incubated for 6 hrs by Western blotting analysis. The following applies: BaF3, 6 h. Type of series: cell-based.
Series [21] concerns PC-9. In words: Antitumor activity in OR-resistant human PC-9 cells xenografted in […] assessed as tumor growth inhibition at 60 mg/kg, po administered once daily for 14 days relative to control. Type of series: functional. The following applies: PC-9, 336 h, time 14 day, read-out: TGI.
The target in series [22] is T1, Epidermal growth factor receptor. The series can be described thus: Inhibition of EGFR L858R/T790M/C797S triple mutant (unknown origin).
In series [23] the test system is BaF3. In words: Cytotoxicity against mouse BaF3 cells harboring EGFR-Del19/T790M/C797S mutant assessed as cell growth inhibition measured after 96 hrs by CellTiter-Glo luminescent assay. Type of series: functional, cell-based. The following applies: BaF3, 96 h.
Series [24] relates to BaF3. The series can be described thus: Antiproliferative activity against mouse BaF3 cells harboring wild type EGFR assessed as reduction in cell growth. Type of series: functional, cell-based.
Series [25] concerns BaF3. In words: Inhibition of EGFR phosphorylation in mouse BaF3 cells harboring EGFR L858R/T790M/C797S triple mutant at 10 uM by Western blotting analysis. It is filed as cell-based.
Series [26] deals with Epidermal growth factor receptor (Homo sapiens, UniProt P00533, T790M/C797S/L858R). Described as §1. It is filed as cell-based. To be noted: baf3.

A value given as a limit tells only on which side of the number the result lay.

Sequence of Epidermal growth factor receptor (Homo sapiens, UniProt P00533) (P00533 whole entry): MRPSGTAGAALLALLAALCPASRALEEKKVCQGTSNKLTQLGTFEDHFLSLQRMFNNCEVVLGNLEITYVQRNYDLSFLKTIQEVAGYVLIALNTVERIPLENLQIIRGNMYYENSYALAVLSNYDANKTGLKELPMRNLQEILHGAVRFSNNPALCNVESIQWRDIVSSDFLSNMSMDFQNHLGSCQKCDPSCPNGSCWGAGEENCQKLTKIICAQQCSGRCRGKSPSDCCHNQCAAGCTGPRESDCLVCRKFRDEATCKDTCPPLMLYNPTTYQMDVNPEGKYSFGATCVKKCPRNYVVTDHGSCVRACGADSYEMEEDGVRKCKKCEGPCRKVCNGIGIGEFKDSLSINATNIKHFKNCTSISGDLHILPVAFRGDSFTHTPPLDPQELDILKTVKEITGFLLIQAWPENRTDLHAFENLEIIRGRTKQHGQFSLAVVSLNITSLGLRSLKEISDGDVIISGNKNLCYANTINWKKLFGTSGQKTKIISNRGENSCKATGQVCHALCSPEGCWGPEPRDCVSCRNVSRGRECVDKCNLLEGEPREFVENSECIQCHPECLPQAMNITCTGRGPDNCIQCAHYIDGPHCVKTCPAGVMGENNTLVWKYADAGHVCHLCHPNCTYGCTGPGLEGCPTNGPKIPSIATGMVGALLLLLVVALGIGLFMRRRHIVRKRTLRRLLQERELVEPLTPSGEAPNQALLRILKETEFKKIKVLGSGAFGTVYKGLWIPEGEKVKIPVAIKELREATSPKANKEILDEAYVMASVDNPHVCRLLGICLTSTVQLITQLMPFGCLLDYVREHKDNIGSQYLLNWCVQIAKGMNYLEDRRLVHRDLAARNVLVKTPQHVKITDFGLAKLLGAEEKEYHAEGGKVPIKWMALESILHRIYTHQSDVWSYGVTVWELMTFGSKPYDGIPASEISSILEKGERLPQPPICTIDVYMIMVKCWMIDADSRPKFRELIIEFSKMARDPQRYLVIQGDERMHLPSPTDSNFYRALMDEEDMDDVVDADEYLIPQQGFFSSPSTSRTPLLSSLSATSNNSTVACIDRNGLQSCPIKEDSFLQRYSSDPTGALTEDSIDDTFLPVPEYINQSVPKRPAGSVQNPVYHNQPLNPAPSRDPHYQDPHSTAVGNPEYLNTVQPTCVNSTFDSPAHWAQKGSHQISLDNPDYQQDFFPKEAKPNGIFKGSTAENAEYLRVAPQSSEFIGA
T1 sequence (P00533 25-1210 T790M/C797S/L858R limits assumed): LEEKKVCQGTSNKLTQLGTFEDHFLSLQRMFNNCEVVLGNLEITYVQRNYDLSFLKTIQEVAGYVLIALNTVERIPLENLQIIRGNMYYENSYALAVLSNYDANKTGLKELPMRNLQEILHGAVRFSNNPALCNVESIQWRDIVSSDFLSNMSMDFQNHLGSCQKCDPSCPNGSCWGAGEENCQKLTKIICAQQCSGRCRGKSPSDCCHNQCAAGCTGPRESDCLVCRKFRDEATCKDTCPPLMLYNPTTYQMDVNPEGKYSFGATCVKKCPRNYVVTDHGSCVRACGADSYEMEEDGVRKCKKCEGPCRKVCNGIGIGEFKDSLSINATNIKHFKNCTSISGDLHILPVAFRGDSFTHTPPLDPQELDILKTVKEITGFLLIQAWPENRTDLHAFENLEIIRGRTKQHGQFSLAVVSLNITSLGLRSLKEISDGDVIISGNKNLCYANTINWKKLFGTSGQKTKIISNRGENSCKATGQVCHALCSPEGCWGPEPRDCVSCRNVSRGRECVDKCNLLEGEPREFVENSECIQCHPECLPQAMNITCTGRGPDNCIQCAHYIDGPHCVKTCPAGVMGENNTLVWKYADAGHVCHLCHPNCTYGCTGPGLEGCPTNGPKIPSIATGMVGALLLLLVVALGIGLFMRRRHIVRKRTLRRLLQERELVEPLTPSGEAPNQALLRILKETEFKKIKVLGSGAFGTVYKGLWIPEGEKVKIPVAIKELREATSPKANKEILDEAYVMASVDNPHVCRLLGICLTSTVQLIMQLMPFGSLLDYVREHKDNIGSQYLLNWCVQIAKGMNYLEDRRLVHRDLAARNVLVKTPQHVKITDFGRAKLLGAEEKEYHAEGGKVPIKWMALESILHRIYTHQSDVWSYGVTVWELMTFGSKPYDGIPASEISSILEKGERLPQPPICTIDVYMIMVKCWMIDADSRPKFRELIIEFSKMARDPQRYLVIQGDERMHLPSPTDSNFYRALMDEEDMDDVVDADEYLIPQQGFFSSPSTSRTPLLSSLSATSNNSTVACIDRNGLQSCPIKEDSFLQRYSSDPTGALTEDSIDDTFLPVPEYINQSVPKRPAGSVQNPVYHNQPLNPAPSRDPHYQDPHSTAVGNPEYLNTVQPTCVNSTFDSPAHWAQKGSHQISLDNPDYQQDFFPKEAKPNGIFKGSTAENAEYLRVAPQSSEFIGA
Sequence of Epidermal growth factor receptor (Homo sapiens, UniProt P00533, T790M/C797S/L858R) (P00533 25-1210 T790M/C797S/L858R limits assumed): as above

Regarding `CCC(=O)N[C@H]1CC[C@@H](N2C(=O)N(c3ccccc3Cl)Cc3cnc(Nc4ccc(N5CCN(C)CC5)c(C)c4)nc32)CC1`, the figures for the IC50 in series [1] and in series [2] were 316 nM and 290 nM, respectively.

`CN1CCN(c2ccc(Nc3ncc4cc(CNc5ccccc5)n(C5CCCC5)c4n3)cc2)CC1` gave an IC50 in [3] of 10 nM.

Regarding `CC(C)n1c2cc(Nc3ccnc(-c4cnn(S(=O)(=O)C5CC5)c4)n3)ncc2c2c(OCC(F)(F)F)cc(N3CCN(C)CC3)cc21`, the IC50 was 0.28 nM in [4]; 1200 nM in [5]; 1200 nM in [6]; 20 nM in series [7]; 0.25 nM in series [3].

In the case of `COc1cc(N2CCN(C(C)=O)CC2)ccc1Nc1ncc(Cl)c(Nc2ccc(NCc3ccc(S(=O)(=O)F)cc3)cc2)n1`, the values for the IC50 in series [8] and in series [1] were 110 nM and > 10000 nM, respectively.

In turn, `COc1cc(N2CCN(CCCCCCCC(=O)N[C@@H](C(=O)N3C[C@@H](O)C[C@@H]3C(=O)N[C@H](C)c3ccc(-c4nc(C)cs4)cc3)C(C)(C)C)CC2)ccc1Nc1ncc(Cl)c(Nc2ccccc2P(C)(C)=O)n1` came in with an IC50 in series [9] of 20 nM.

In the case of `COc1cc(N2CCC(N3CCN(CCC#Cc4cccc5c4CN(C4CCC(=O)NC4=O)C5=O)CC3)CC2)ccc1Nc1ncc(Cl)c(Nc2ccccc2P(C)(C)=O)n1` (configuration not stated), in [10], the bioavailability was 62.3%.

For `c1ccc(-c2cc(N3Cc4ccccc4C3)nc3ccccc23)cc1`, the IC50 in [11] stood at 11.2 nM; in series [12], 124 nM; in [13], 7.9 nM.

With `O=C(Nc1nccs1)C(c1cc(F)ccc1O)N1Cc2ccccc2C1=O` (configuration not stated), the IC50 in series [2] and in [14] was > 10000 nM in each case.

As to `C=CC(=O)Nc1cc(Nc2nccc(-c3cn(C)c4ccccc34)n2)c(OC)cc1N(C)CCN(C)C` [OSIMERTINIB], the IC50 was 4850 nM in [15], 80 nM in series [16], 4140 nM in [17] and 3380 nM in series [18].

Regarding `CN1CCN(c2ccc(Nc3ncc(Cl)c(Nc4ccccc4P(C)(C)=O)n3)c(Br)c2)CC1`, the inhibition in vivo at 30 mg/kg in series [19] came to 83.5%. Moreover, the IC50 in series [20] came to 2.4 nM; in series [15] it was 180 nM; in [16], 230 nM; in series [17], 120 nM; in series [22], 3.1 nM; in [18], 90 nM. Besides, in series [21], the inhibition in vivo at 60 mg/kg was determined as 137%.

In the case of `COc1ccc(-c2c3c4cc(OCCCN(C)C)c(OCCCN(C)C)cc4oc(=O)c3n3ccc4cc(O)c(OC)cc4c23)cc1O`, the IC50 in [23] is 127 nM; in series [24] it was 520 nM.

Take `CO[C@@H]1CCN(c2nccc(Nc3cc4c(C(C)C)ccc(N5C[C@H](CS(C)(=O)=O)[C@H]5C)c4cn3)n2)C[C@@H]1F` [TIGOZERTINIB]: the values for the IC50 in series [1] and in [2] were 3.2 nM and 4 nM, respectively.

Regarding `Cc1cc(N2Cc3ccccc3C2)nc2ccc(Cl)cc12`, the IC50 came to 10.8 nM in series [11], 130 nM in [12] and 7.59 nM in [13].

Turning to `N#Cc1ccc(O)c(-c2nc(NCc3cccnc3)c3ccccc3n2)c1`, the inhibition in [25] came to 94.2%.

In [26], `CNC(=O)c1cnc(Nc2ccnc(N3CCC(O)CC3)n2)cc1NC(C)C` yielded an IC50 of 266 nM.

As for `Cc1cc(N2CCN(C(c3ccccc3)c3ccccc3)CC2)nc2ccc(Cl)cc12`, the IC50 in series [11] came out at 10.5 nM; in [12], 136 nM; in series [13] it was 7.92 nM.

Consider `Oc1ccccc1-c1nc(NCC2CCOC2)c2ccccc2n1` (configuration not stated), for which the inhibition in series [25] was determined as 91%.
